Test results: article PMC12406652 (Antimicrobial Agents and Chemotherapy, 2025)
Marks after values point to notes of the source that are not given here.

How the values were obtained:
[1] = Urinary pharmacokinetics after single doses of LED-E; type: in vivo, human; settings: urine, geometric mean (geometric CV %); for CL renal: human, oral
Description: Plasma and urine pharmacokinetics samples were assayed for LED-E, LED, and CTB, as appropriate using validated bioanalytical methods. […] Quantitation used separate weighted 1 /x^2 linear least-squares regression analyses generated from calibration standards. Exploratory screening for metabolites was performed for some samples. In both studies, plasma pharmacokinetic parameters were calculated using WinNonlin (Certara; Radnor, PA), and urine pharmacokinetic parameters were calculated using SAS (SAS Institute; Cary, NC).

[2] = Plasma pharmacokinetics on Day 10 after multiple doses of CTB + LED-E q8h (VNRX-7145-102 Part 3); settings: human, oral; for AUC: AUCtau; for AUC / Cmax / half-life: geometric mean (CV %)
[3] = Urinary recovery on Day 10 after multiple doses of CTB + LED-E q8h (VNRX-7145-102 Part 3); settings: urine, geometric mean (geometric CV %); for CL renal: human, oral, CLr
[4] = Plasma pharmacokinetics on Day 10 after multiple doses of LED-E q8h (VNRX-7145-101 Part 2, VNRX-7145-102 Part 2); type: in vivo, human; settings: for AUC / Cmax / Tmax / half-life: human, oral, plasma; for Tmax: median (range)
Description: Quantitation used separate weighted 1 /x^2 linear least-squares regression analyses generated from calibration standards. Exploratory screening for metabolites was performed for some samples. […] […] […] Dose proportionality was analyzed using a power model in which pharmacokinetic exposure parameters and dose were converted to the natural log and linear regression results were reported, with the slope as the power estimate ([15]). […] In Part 2, achievement of steady-state concentrations was assessed using Tukey’s multiple comparison test for pre-dose and all dosing days (Days 2 to 10) for each dose level separately. […] Plasma pharmacokinetic parameters were calculated using noncompartmental analysis of the plasma and urine concentration-time data. […] AUCinf and Cmax were natural log-transformed before analysis, using a linear mixed effects model. […] In both studies, plasma pharmacokinetic parameters were calculated using WinNonlin (Certara; Radnor, PA), and urine pharmacokinetic parameters were calculated using SAS (SAS Institute; Cary, NC).

[5] = Plasma pharmacokinetics after single ascending doses of LED-E (VNRX-7145-101 Part 1); type: in vivo; settings: human, oral; for AUC(0-inf) / Cmax / half-life: geometric mean (CV %); for half-life: read-out: t1/2 (converted); for Tmax: median (range)
Description: Quantitation used separate weighted 1 /x^2 linear least-squares regression analyses generated from calibration standards. Exploratory screening for metabolites was performed for some samples. […] Single-dose plasma pharmacokinetic parameters were determined in Part 1, and both single-dose (Day 1) and multiple-dose ([…]) parameters were determined in Part 2. […] Dose proportionality was analyzed using a power model in which pharmacokinetic exposure parameters and dose were converted to the natural log and linear regression results were reported, with the slope as the power estimate ([15]). […] In Part 2, achievement of steady-state concentrations was assessed using Tukey’s multiple comparison test for pre-dose and all dosing days (Days 2 to 10) for each dose level separately. In both studies, plasma pharmacokinetic parameters were calculated using WinNonlin (Certara; Radnor, PA), and urine pharmacokinetic parameters were calculated using SAS (SAS Institute; Cary, NC).

[6] = Urinary pharmacokinetics on Day 10 after multiple doses of LED-E q8h; type: in vivo, human; settings: urine; for CL renal: oral; for CL renal / Ae0–8 / Ae0–48: geometric mean (geometric CV %); for Ae0–8 / Ae0–48: after last dose (Day 10)
Description: Quantitation used separate weighted 1 /x^2 linear least-squares regression analyses generated from calibration standards. Exploratory screening for metabolites was performed for some samples. […] Plasma pharmacokinetic parameters were calculated using noncompartmental analysis of the plasma and urine concentration-time data. […] AUCinf and Cmax were natural log-transformed before analysis, using a linear mixed effects model. […] In both studies, plasma pharmacokinetic parameters were calculated using WinNonlin (Certara; Radnor, PA), and urine pharmacokinetic parameters were calculated using SAS (SAS Institute; Cary, NC).

[7] = Day 10, CTB 400 mg + LED-E 300 mg q8h
[8] = Day 10, CTB 400 mg + LED-E 500 mg q8h
[9] = Day 10, LED-E 150 mg q8h, geometric mean (CV %)
[10] = Day 10, LED-E 300 mg q8h, geometric mean (CV %)
[11] = Day 10, LED-E 500 mg q8h, geometric mean (CV %)
[12] = 1000 mg, single dose LED-E 1,000 mg
[13] = multiple doses LED-E 150 mg q8h
[14] = multiple doses LED-E 300 mg q8h
[15] = multiple doses LED-E 500 mg q8h

## CCC(=O)N[C@H]1Cc2cccc(C(=O)O)c2OB1O [Ledaborbactam, ledaborbactam]
[1]; single dose LED-E 300 mg
  CL renal: 66.3 mL/min
  Ae0–8: 113 (23.3) mg
  Ae0–48: 131 (20.3) mg
[1]; single dose LED-E 500 mg
  CL renal: 53.3 mL/min
  Ae0–8: 190 (14.1) mg
  Ae0–48: 220 (12.2) mg
[1]; single dose LED-E 800 mg
  CL renal: 58.7 mL/min
  Ae0–8: 364 (6.14) mg
  Ae0–48: 438 (3.3) mg
[1]; single dose LED-E 1000 mg
  CL renal: 75.5 mL/min
  Ae0–8: 459 (16.6) mg
  Ae0–48: 515 (16.9) mg
[2]; [7]
  AUC: 33300 ng·h/mL
  Cmax: 8470 ng/mL
[2]; [8]
  AUC: 62200 ng·h/mL
  Cmax: 16200 ng/mL
[2]; Tmax, Day 10, CTB 400 mg + LED-E 300 mg q8h, median (range)
  Tmax: 1 h
[2]; t1/2, Day 10, CTB 400 mg + LED-E 300 mg q8h
  half-life: 11.4 h
[2]; t1/2, Day 10, CTB 400 mg + LED-E 500 mg q8h
  half-life: 12.3 h
[3]; [7]
  Ae0–8: 156 (11.3) mg
  CL renal: 85.8 mL/min
[3]; [8]
  Ae0–8: 243 (22.8)^d mg
  CL renal: 74.8 mL/min
[4]; LED-E q8h dosing
  Steady-state plasma concentrations reached by: ≤ 3 days
[4]; Day 10, LED-E 75 mg q8h, 0 to 8 h post-dose, geometric mean (CV %)
  AUC: 13900 ng·h/mL
[4]; Day 10, LED-E 75 mg q8h, geometric mean (CV %)
  Cmax: 3690 ng/mL
[4]; Day 10, LED-E 75 mg q8h
  Tmax: 1 h
[4]; [9]
  AUC: 20800 ng·h/mL
  Cmax: 5870 ng/mL
[4]; Day 10, LED-E 150 mg q8h
  Tmax: 0.75 h
[4]; [10]
  AUC: 40900 ng·h/mL
  Cmax: 11600 ng/mL
[4]; Day 10, LED-E 300 mg q8h
  Tmax: 1.13 h
[4]; [11]
  AUC: 70000 ng·h/mL
  Cmax: 15800 ng/mL
[4]; 75 mg, Day 10, LED-E 75 mg q8h, geometric mean (CV %), read-out: t1/2 (converted)
  half-life: 9.3 h
[4]; 150 mg, Day 10, LED-E 150 mg q8h, geometric mean (CV %), read-out: t1/2 (converted)
  half-life: 11.4 h
[4]; 300 mg, Day 10, LED-E 300 mg q8h, geometric mean (CV %), read-out: t1/2 (converted)
  half-life: 11.3 h
[4]; 500 mg, Day 10, LED-E 500 mg q8h, geometric mean (CV %), read-out: t1/2 (converted)
  half-life: 12.5 h
[4]; Day 10, after 10 days of q8h dosing, across dose groups, read-out: Terminal half-life (t1/2) in plasma
  half-life: 11 to 12 h
[5]; [12]
  AUC(0-inf): 114000 ng·h/mL
  Cmax: 26500 ng/mL
  half-life: 11.3 h
  Tmax: 2 h
[5]; single dose LED-E 100 mg
  AUC(0-inf): 15400 ng·h/mL
  Cmax: 4010 ng/mL
  half-life: 5.53 h
[5]; single dose LED-E 200 mg
  AUC(0-inf): 26200 ng·h/mL
  Cmax: 5970 ng/mL
  half-life: 6.1 h
[5]; single dose LED-E 300 mg
  AUC(0-inf): 33100 ng·h/mL
  Cmax: 7570 ng/mL
  half-life: 7.48 h
[5]; single dose LED-E 500 mg
  AUC(0-inf): 69300 ng·h/mL
  Cmax: 16800 ng/mL
  half-life: 11.3 h
[5]; single dose LED-E 800 mg
  AUC(0-inf): 125000 ng·h/mL
  Cmax: 24000 ng/mL
  half-life: 8.59 h
  Tmax: 2 h
[6]; human, multiple doses LED-E 75 mg q8h
  CL renal: 44.2 mL/min
[6]; human, multiple doses LED-E 150 mg q8h
  CL renal: 51.8 mL/min
[6]; human, multiple doses LED-E 300 mg q8h
  CL renal: 51.5 mL/min
[6]; human, multiple doses LED-E 500 mg q8h
  CL renal: 82 mL/min
[6]; human, after oral dosing of LED-E, inferred from urinary excretion
  bioavailability: ≥ 68%
[6]; multiple doses LED-E 75 mg q8h
  Ae0–8: 43.1 (6.95) mg
  Ae0–48: 51.6 (7.80) mg
[6]; multiple doses LED-E 75 mg q8h, listed as LED
  Ae0–48: 51.6 mg
[6]; [13]
  Ae0–8: 73.1 (10.0) mg
  Ae0–48: 86.6 (11.1) mg
[6]; [14]
  Ae0–8: 137 (34.2) mg
  Ae0–48: 166 (27.8) mg
[6]; [15]
  Ae0–8: 283 (7.8) mg
  Ae0–48: 345 (11.2) mg
[6]; multiple doses LED-E 500 mg q8h, listed as LED
  Ae0–48: 345 mg
